Legend:
[1] = Drug level in human liver microsomes treated with (1S,2S,3R,4R)-3-(5-chloro-2-((S)-1-methoxy-7-morpholino-6,7,8,9-tetrahydro-5H-benzo[7]annulen-2-ylamino)pyrimidin-4-ylamino)bicyclo[2.2.1]hept-5-ene-2-carboxamide at 10 uM after 120 mins in presence of NADPH by LC/MS/MS analysis; assay type: ADME; details: 2 h
[2] = Drug level in rat liver microsomes treated with (1S,2S,3R,4R)-3-(5-chloro-2-((S)-1-methoxy-7-morpholino-6,7,8,9-tetrahydro-5H-benzo[7]annulen-2-ylamino)pyrimidin-4-ylamino)bicyclo[2.2.1]hept-5-ene-2-carboxamide at 10 uM after 120 mins in presence of NADPH by LC/MS/MS analysis; assay type: ADME; details: 2 h
[3] = Oral bioavailability in Sprague-Dawley rat at 5 mg/kg by LC/MS/MS analysis; assay type: ADME, organism-based; details: in vivo
[4] = Half life in rat liver microsomes by LC/MS/MS analysis; assay type: ADME
[5] = target: T1, ALK tyrosine kinase receptor (Homo sapiens, UniProt Q9UM73); assay: Inhibition of NPM-ALK phosphorylation in human SUP-M2 cells after 2 to 3 hrs by ELISA; assay type: cell-based
[6] = target: T1, ALK tyrosine kinase receptor; assay: Inhibition of human ALK expressed in baculovirus using recombinant GST PLC-gamma as substrate assessed as phosphorylation of the substrate after 15 mins by TRF assay
Target sequence in this assay (Q9UM73 whole entry): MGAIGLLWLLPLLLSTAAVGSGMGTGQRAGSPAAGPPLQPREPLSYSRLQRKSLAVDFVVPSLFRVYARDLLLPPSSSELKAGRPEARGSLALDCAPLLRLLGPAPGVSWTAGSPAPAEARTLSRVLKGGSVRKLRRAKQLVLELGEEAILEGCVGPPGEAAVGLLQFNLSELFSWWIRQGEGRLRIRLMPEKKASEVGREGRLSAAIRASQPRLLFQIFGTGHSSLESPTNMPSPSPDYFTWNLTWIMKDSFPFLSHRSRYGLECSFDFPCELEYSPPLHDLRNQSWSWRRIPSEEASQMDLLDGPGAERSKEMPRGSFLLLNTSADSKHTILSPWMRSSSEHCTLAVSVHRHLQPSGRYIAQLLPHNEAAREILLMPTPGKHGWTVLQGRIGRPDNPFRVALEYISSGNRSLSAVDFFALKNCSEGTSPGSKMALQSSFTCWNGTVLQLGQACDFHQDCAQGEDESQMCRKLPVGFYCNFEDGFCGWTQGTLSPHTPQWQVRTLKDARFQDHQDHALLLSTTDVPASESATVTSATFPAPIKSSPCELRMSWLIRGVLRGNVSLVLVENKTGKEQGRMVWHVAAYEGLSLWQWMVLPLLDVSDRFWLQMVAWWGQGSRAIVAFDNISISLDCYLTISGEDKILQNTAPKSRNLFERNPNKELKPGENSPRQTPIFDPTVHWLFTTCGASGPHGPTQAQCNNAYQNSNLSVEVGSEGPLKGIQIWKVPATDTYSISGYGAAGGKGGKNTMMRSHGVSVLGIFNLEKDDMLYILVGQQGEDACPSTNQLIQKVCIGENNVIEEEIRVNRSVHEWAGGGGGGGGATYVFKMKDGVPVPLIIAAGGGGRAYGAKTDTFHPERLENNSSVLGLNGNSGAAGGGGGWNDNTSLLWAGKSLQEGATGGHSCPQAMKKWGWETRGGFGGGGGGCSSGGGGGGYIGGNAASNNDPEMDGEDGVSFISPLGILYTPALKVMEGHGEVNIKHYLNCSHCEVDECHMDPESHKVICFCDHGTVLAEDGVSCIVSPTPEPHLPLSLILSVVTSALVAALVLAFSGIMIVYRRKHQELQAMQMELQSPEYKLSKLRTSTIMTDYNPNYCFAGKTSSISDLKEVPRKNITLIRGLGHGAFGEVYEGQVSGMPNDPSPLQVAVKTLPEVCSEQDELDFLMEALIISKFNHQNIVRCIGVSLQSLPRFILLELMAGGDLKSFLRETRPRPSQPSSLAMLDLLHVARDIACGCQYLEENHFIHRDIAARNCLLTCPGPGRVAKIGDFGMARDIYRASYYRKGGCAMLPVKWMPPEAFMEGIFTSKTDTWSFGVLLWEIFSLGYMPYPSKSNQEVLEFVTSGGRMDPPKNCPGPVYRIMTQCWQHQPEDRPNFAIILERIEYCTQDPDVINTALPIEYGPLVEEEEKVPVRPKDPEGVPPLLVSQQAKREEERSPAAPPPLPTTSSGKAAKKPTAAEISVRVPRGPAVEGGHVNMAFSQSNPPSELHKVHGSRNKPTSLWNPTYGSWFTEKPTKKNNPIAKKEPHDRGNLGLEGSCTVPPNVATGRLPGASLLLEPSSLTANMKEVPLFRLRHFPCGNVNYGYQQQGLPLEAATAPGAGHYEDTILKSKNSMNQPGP

[7] = Half life in human liver microsomes by LC/MS/MS analysis; assay type: ADME
[8] = target: Voltage-gated inwardly rectifying potassium channel KCNH2 (Homo sapiens, UniProt Q12809); assay: Inhibition of human ERG
Sequence of Voltage-gated inwardly rectifying potassium channel KCNH2 (Q12809 whole entry): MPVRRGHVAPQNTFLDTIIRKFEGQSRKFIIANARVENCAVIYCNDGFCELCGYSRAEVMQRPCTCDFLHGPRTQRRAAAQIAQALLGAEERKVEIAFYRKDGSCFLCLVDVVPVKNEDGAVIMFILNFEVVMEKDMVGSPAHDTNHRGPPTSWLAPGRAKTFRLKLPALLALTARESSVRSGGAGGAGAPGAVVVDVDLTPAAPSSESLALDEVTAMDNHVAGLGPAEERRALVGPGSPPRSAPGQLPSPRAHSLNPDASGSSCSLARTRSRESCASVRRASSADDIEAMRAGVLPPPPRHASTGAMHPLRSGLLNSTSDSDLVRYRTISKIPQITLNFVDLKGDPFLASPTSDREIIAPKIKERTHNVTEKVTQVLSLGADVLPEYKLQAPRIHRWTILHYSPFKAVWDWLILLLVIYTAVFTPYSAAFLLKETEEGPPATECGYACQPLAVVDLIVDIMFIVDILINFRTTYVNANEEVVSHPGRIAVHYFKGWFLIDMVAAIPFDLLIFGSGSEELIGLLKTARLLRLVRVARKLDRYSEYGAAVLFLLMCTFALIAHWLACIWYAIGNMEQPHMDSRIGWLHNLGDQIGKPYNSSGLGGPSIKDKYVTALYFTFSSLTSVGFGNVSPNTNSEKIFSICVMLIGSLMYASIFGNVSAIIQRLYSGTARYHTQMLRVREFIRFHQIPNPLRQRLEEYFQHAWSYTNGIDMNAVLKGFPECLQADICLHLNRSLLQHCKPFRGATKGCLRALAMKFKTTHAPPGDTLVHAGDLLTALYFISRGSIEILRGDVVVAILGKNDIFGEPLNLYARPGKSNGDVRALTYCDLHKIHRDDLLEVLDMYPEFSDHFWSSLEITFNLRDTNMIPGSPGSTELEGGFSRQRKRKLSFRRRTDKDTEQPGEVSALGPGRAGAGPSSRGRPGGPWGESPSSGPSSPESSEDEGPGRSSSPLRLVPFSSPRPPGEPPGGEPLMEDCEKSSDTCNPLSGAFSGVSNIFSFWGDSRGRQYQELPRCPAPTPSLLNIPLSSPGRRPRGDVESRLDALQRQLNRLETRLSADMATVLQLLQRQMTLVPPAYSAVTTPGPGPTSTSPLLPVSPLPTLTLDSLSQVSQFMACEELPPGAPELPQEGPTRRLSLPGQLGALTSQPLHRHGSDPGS

Insulin receptor = Insulin receptor (Homo sapiens, UniProt P06213)
Description: Inhibition of recombinant human INSR expressed in baculovirus using ATP as substrate after 15 mins by TRF assay

Cytochrome P450 2D6 = Cytochrome P450 2D6 (Homo sapiens, UniProt P10635); assay: Inhibition of CYP2D6 in human liver microsomes using dextromethorphan as substrate in presence of NADPH by LC/MS/MS analysis; assay type: ADME
Sequence of Cytochrome P450 2D6 (P10635 whole entry): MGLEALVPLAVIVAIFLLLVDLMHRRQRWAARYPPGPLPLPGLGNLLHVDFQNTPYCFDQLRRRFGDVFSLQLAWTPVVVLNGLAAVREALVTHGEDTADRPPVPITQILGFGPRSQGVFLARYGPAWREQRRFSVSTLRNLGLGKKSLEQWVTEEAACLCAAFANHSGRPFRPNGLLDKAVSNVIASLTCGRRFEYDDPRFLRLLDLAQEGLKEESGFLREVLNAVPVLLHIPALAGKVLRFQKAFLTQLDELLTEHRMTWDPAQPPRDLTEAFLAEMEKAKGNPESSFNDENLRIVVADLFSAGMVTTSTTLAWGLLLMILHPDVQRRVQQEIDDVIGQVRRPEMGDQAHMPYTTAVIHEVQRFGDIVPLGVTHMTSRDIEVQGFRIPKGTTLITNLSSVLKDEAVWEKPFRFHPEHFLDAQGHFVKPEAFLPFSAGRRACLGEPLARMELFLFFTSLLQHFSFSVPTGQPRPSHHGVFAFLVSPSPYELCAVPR

[9] = Half life in CD-1 mouse liver microsomes by LC/MS/MS analysis; assay type: ADME
Cytochrome P450 3A4 = Cytochrome P450 3A4 (Homo sapiens, UniProt P08684); assay: Inhibition of CYP3A4 in human liver microsomes using testosterone/midazolam as substrate in presence of NADPH by LC/MS/MS analysis; assay type: ADME
Sequence of Cytochrome P450 3A4 (P08684 whole entry): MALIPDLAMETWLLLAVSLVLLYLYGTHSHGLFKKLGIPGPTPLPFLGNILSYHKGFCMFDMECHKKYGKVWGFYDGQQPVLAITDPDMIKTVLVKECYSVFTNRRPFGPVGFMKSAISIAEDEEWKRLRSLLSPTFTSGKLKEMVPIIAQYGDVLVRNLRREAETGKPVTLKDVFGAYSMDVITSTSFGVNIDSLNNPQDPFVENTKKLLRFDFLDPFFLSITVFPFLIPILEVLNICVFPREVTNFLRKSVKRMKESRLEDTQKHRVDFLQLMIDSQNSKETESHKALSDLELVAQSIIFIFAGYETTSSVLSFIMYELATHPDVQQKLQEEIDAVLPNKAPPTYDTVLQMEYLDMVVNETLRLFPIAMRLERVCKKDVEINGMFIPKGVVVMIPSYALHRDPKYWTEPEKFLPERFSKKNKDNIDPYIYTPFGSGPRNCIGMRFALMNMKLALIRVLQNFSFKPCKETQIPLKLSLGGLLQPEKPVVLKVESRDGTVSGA

Cytochrome P450 2C19 = Cytochrome P450 2C19 (Homo sapiens, UniProt P33261); assay: Inhibition of CYP2C19 in human liver microsomes using S-mephenytoin as substrate in presence of NADPH by LC/MS/MS analysis; assay type: ADME
Sequence of Cytochrome P450 2C19 (P33261 whole entry): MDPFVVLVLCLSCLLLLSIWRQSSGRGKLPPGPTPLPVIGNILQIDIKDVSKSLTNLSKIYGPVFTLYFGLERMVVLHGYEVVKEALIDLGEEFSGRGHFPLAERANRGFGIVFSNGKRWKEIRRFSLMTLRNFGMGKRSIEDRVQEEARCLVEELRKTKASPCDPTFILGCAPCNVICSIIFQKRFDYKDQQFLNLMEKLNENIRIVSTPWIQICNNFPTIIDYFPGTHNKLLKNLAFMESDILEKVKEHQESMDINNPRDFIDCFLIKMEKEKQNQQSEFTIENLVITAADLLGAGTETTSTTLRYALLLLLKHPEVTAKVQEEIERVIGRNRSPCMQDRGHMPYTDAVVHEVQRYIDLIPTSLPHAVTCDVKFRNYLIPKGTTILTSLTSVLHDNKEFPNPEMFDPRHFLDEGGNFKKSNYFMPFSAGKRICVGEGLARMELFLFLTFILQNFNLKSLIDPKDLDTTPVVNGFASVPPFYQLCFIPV

[10] = AUC (0 to infinity) in Sprague-Dawley rat at 5 mg/kg, po by LC/MS/MS analysis; assay type: ADME, organism-based; parameters: dose 5 mg/kg, time infinity, route oral; details: in vivo
Cytochrome P450 2C9 = Cytochrome P450 2C9 (Homo sapiens, UniProt P11712); assay: Inhibition of CYP2C9 in human liver microsomes using diclofenac as substrate in presence of NADPH by LC/MS/MS analysis; assay type: ADME
Sequence of Cytochrome P450 2C9 (P11712 whole entry): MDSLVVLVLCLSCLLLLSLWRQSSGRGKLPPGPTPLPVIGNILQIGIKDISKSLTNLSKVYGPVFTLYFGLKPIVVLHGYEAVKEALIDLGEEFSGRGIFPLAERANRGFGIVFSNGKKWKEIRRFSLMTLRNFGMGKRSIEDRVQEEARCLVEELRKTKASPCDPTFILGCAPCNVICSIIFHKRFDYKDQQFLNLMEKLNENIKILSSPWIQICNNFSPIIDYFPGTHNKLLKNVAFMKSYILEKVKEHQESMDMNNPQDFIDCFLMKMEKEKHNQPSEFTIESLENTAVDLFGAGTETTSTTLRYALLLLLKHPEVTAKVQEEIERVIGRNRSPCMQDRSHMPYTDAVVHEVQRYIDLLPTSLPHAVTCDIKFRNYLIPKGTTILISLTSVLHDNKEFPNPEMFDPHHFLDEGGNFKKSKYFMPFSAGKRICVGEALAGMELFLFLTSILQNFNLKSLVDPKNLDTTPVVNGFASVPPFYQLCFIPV

Cytochrome P450 1A2 = target: T2, Cytochrome P450 1A2 (Homo sapiens, UniProt P05177); assay: Inhibition of CYP1A2 in human liver microsomes using phenacetin as substrate in presence of NADPH by LC/MS/MS analysis; assay type: ADME
T2 sequence (P05177 whole entry): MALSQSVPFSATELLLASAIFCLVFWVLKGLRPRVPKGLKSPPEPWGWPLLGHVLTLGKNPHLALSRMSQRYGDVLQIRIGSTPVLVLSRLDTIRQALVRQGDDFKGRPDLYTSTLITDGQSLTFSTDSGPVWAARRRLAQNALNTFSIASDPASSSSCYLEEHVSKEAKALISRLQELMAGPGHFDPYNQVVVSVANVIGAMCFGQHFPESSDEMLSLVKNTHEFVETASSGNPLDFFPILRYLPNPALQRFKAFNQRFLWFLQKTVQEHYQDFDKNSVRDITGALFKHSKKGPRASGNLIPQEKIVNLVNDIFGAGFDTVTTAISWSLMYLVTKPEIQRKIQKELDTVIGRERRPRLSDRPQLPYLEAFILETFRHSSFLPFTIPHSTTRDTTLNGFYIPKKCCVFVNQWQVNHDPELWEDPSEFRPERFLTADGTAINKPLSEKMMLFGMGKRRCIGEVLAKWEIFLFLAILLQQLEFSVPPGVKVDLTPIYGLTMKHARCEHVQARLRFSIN

[11] = Half life in cynomolgus monkey liver microsomes by LC/MS/MS analysis; assay type: ADME, Macaca fascicularis
[12] = AUC (0 to 6 hrs) in rat by LC/MS/MS analysis; assay type: ADME; parameters: time < 6 hr; details: in vivo
[13] = Apparent permeability from apical to basolateral side in human Caco2 cells; assay type: ADME, cell-based; details: Caco-2
[14] = Drug metabolism in human liver microsomes assessed as methyl group loss from N-methylmethanesulfonamide; assay type: ADME
[15] = Drug metabolism in mouse liver microsomes assessed as methyl group loss from N-methylmethanesulfonamide; assay type: ADME
[16] = Drug metabolism in cynomolgus monkey liver microsomes assessed as methyl group loss from N-methylmethanesulfonamide; assay type: ADME, Macaca fascicularis
[17] = Drug metabolism in rat liver microsomes assessed as methyl group loss from N-methylmethanesulfonamide; assay type: ADME

SMILES: COc1c(Nc2ncc(Cl)c(N[C@H]3[C@@H](C(N)=O)[C@H]4C[C@@H]3C3OC34)n2)ccc2c1CC[C@@H](N1CCOCC1)CC2 (stereo partly specified)
- Drug metabolism [1]: Metabolite_Detected
- Drug metabolism [2]: Metabolite_Detected

SMILES: COc1c(Nc2ncc(Cl)c(Nc3ccccc3-c3nccn3C)n2)ccc2c1CCCC(N1CCN(CCO)CC1)C2 (racemic)
- bioavailability [3]: 19%
- half-life [4]: 22 min
- IC50 [5]: 50 nM
- IC50 [6]: 5 nM
- half-life [7]: 18 min

SMILES: COc1c(Nc2ncc(Cl)c(Nc3ccccc3-n3cccn3)n2)ccc2c1CCCC(N1CCN(CCO)CC1)C2 (racemic)
- bioavailability [3]: 19%
- half-life [4]: 40 min
- IC50 [5]: 20 nM
- IC50 [6]: 2.3 nM
- IC50 [8]: 3700 nM
- half-life [7]: 40 min

SMILES: COc1c(Nc2ncc(Cl)c(N[C@H]3[C@@H](C(N)=O)[C@@H]4C=C[C@H]3C4)n2)ccc2c1CCC[C@H](N1CCN(CCO)CC1)C2
- bioavailability [3]: 10%
- half-life [4]: 15 min
- IC50 [5]: 30 nM
- IC50 [6]: 5.8 nM
- IC50 [8]: > 10000 nM
- half-life [7]: 18 min

SMILES: COc1c(Nc2ncc(Cl)c(Nc3ccccc3S(=O)(=O)N(C)C)n2)ccc2c1CCCC(N1CCN(CCO)CC1)C2 (racemic)
- bioavailability [3]: 28%
- half-life [4]: 40 min
- IC50 [5]: 40 nM
- IC50 [6]: 4 nM
- IC50 [8]: 240 nM
- half-life [7]: 18 min

SMILES: COc1c(Nc2ncc(Cl)c(Nc3ccccc3NS(C)(=O)=O)n2)ccc2c1CCCC(N1CCN(CCO)CC1)C2 (racemic)
- half-life [4]: 40 min
- IC50 [6]: 18 nM
- half-life [7]: 40 min
- IC50 (Insulin receptor): > 2000 nM

SMILES: COc1c(Nc2ncc(Cl)c(N[C@H]3[C@@H](C(N)=O)[C@@H]4C=C[C@H]3C4)n2)ccc2c1CCC[C@H](N1CCN(C)CC1)C2
- bioavailability [3]: 11%
- half-life [4]: 40 min
- IC50 [5]: 200 nM
- IC50 (Cytochrome P450 2D6): > 10000 nM
- half-life [9]: 40 min
- IC50 (Cytochrome P450 3A4): > 10000 nM
- IC50 [6]: 9 to 14 nM
- IC50 [8]: 9100 nM
- IC50 (Cytochrome P450 2C19): > 10000 nM
- AUC(0-inf) [10]: 4400 ng·h/mL
- IC50 (Cytochrome P450 2C9): > 10000 nM
- IC50 (Cytochrome P450 1A2): > 10000 nM
- half-life [7]: 15 min
- half-life [11]: 9 min

SMILES: COc1c(Nc2ncc(Cl)c(Nc3ccccc3N3CCCS3(=O)=O)n2)ccc2c1CCCC(N1CCN(CCO)CC1)C2 (racemic)
- bioavailability [3]: 48%
- half-life [4]: 38 min
- IC50 [5]: 60 nM
- IC50 [6]: 6.1 nM
- half-life [7]: 16 min

SMILES: COc1c(Nc2ncc(Cl)c(N[C@H]3[C@@H](C(N)=O)[C@@H]4C=C[C@H]3C4)n2)ccc2c1CCC[C@H](N1CCOCC1)C2
- half-life [4]: 5 min
- IC50 [6]: 7 nM
- half-life [7]: 6 min

SMILES: COc1c(Nc2ncc(Cl)c(N[C@H]3[C@@H](C(N)=O)[C@@H]4C=C[C@H]3C4)n2)ccc2c1CCC[C@@H](N1CCOCC1)C2
- half-life [4]: 5 min
- IC50 [6]: 1.5 nM
- half-life [7]: 5 min

SMILES: COc1c(Nc2ncc(Cl)c(N[C@H]3[C@@H](C(N)=O)[C@@H]4C=C[C@H]3C4)n2)ccc2c1CCC[C@@H](N1CCN(CCO)CC1)C2
- IC50 [5]: 50 nM
- IC50 [6]: 6.3 nM
- IC50 [8]: > 10000 nM

SMILES: COc1c(Nc2ncc(Cl)c(Nc3ccccc3N(C)S(C)(=O)=O)n2)ccc2c1CCCC(N1CCN(C)CC1)C2 (racemic)
- bioavailability [3]: 9%
- half-life [4]: 33 min
- IC50 [5]: 40 nM
- IC50 [6]: 2.3 nM
- AUC(0-t) at 6 h [12]: 1300 ng·h/mL
- half-life [7]: 12 min

SMILES: COCCNC1CCCc2c(ccc(Nc3ncc(Cl)c(N[C@H]4[C@@H](C(N)=O)[C@@H]5C=C[C@H]4C5)n3)c2OC)C1 (stereo partly specified)
- half-life [4]: 31 min
- IC50 [6]: 7 nM
- half-life [7]: 15 min

SMILES: CNC(=O)c1ccccc1Nc1nc(Nc2ccc3c(c2OC)CCC[C@@H](N2CCN(CCO)CC2)C3)ncc1Cl
- bioavailability [3]: 18%
- half-life [4]: 40 min
- IC50 (Cytochrome P450 2D6): > 5600 nM
- half-life [9]: 40 min
- Papp A→B [13]: > 1 ×10⁻⁶ cm/s
- IC50 [8]: > 10000 nM
- IC50 (Cytochrome P450 2C19): > 5600 nM
- AUC(0-inf) [10]: 1200 ng·h/mL
- IC50 (Cytochrome P450 2C9): > 5600 nM
- IC50 (Cytochrome P450 1A2): > 5600 nM
- half-life [7]: 40 min
- half-life [11]: 24 min

SMILES: COc1c(Nc2ncc(Cl)c(N[C@H]3[C@@H](C(N)=O)[C@@H]4C=C[C@H]3C4)n2)ccc2c1CC(N1CCOCC1)CCC2 (stereo partly specified)
- IC50 [6]: 39 nM
- IC50 (Insulin receptor): > 10000 nM

SMILES: COc1ccccc1Nc1nc(Nc2ccc3c(c2OC)CCCC(N2CCN(CCO)CC2)C3)ncc1Cl (racemic)
- IC50 [6]: 44 nM

SMILES: CNC(=O)c1ccccc1Nc1nc(Nc2ccc3c(c2OC)CCCC(N2CCN(CCO)CC2)C3)ncc1Cl (racemic)
- bioavailability [3]: 47%
- half-life [4]: > 40 min
- IC50 [8]: ≥ 10000 nM
- half-life [7]: > 40 min

SMILES: COc1c(Nc2ncc(Cl)c(N[C@H]3[C@@H](C(N)=O)[C@@H]4C=C[C@H]3C4)n2)ccc2c1CCCC(N1CCN(C)CC1)C2 (single isomer, unassigned)
- bioavailability [3]: 11%
- half-life [4]: 39 min
- IC50 [5]: 200 nM
- IC50 (Cytochrome P450 2D6): > 10000 nM
- half-life [9]: 40 min
- IC50 (Cytochrome P450 3A4): > 10000 nM
- IC50 [6]: 9 nM
- IC50 [8]: 7900 nM
- IC50 (Cytochrome P450 2C19): > 10000 nM
- AUC(0-inf) [10]: 5530 ng·h/mL
- IC50 (Cytochrome P450 2C9): > 10000 nM
- IC50 (Cytochrome P450 1A2): > 10000 nM
- half-life [7]: 11 min
- half-life [11]: 7 min

SMILES: COc1c(Nc2ncc(Cl)c(Nc3ccccc3N(C)S(C)(=O)=O)n2)ccc2c1CCCC(N1CCN(CCO)CC1)C2 (racemic)
- bioavailability [3]: 38%
- Drug metabolism [14]: Metabolite_Detected
- Drug metabolism [15]: Metabolite_Detected
- half-life [4]: 37 min
- IC50 [5]: 30 nM
- Drug metabolism [16]: Metabolite_Detected
- half-life [9]: 37 min
- IC50 [6]: 2 nM
- Drug metabolism [17]: Metabolite_Detected
- AUC(0-t) at 6 h [12]: 3960 ng·h/mL
- half-life [7]: 13 min
- half-life [11]: 8 min

From ChEMBL document CHEMBL3856231 (J Med Chem, 2016)
